According to patent publication US20240287545A1, “Improved lysis procedures” (uniQure biopharma B.V., priority 2021, published 2024):

Tested on: baculovirus
Assay: TCID50 assay of infectious baculovirus titer after lysis (baculovirus clearance)
Format: cell-based
Details: for baculovirus clearance, TCID50 results: study 1, after detergent treatment (FIG. 3); for baculovirus clearance, TCID50 samples: study 2, CLB, all concentrations tested (0.25% through 1%), bulk material 7.8 log TCID50/mL
Text: A reduction in titer of a rod-like shaped virus, i.e., the factor by which the titer of the virus to be removed is decreased, is preferably at least 5 logs, e.g. after a mixed population of parvoviral particles and 10×10^1 baculoviral virions had been separated in accordance with a method of the invention, no baculoviral virions were then detected in the filtrate. Preferably, the reduction in titer of a rod-like shaped virus that is achieved by a method of the invention is at least 5.5 logs, at least 6 logs, at least 6.5 logs, at least 7 logs, at least 8 logs, at least 9 logs, most preferably at least 10 logs. The titer can be determined by general methods known in the art, such as for example by a Tissue Culture Infectious Dose 50% (TCID50) assay. For example, the infectious baculovirus titer of a population of baculoviral virions in a sample can be determined using a TCID50 assay. This method is based on the infection of monolayers of Sf9 insect cells with infectious baculovirus in a positive control sample. A serial dilution in culture medium of the positive control sample is used to infect the cells. The cells are incubated at +28° C. for 7 days. Subsequently, the supernatants are transferred to newly prepared plates with monolayers of Sf9 insect cells and incubated at +28° C. for 7 days. As infection proceeds, the infected cells are not able to remain attached to each other and to the plate surface and form loose cells, i.e., show cytopathogenic effect (CPE), which can be observed microscopically. The titer in log 10 TCID50/mL is calculated using the Spearman-KArber method.
Analytics performed on samples during these studies included: qPCR to determine vector genome copies (GC) concentration (GC/mL), SEC-HPLC was used to determine total particle (TP) content (TP/mL) which includes empty and full particles which can only be done of samples after affinity chromatography. A TCID50 assay is a measure of infectious baculovirus titer and is used to test clearance of baculovirus after the lysis step where the detergent is added. Potency was determined based on the ability of the product to mediate production of active transgene polypeptide product (here FIX) by Huh-7 cells as compared to a reference sample. Huh-7 cells are infected and cultured to allow production of transgene polypeptide which is then quantified using a commercially obtained activity assay (221805 or 221806 from Hyphen Biomed). LDAO clearance in the drug substance (DS) was measured with an outsourced commercially available chromatographic method.
4.1 different surfactants can be used This first study involved crude bulk material generation using a shaker flask-based protocol following the process outlined in Example 1, until affinity chromatography; where the batch binding method was used. […]

SMILES	baculovirus clearance, TCID50 results	baculovirus clearance, TCID50 samples
CCCCCCCCCCCCO[C@@H]1O[C@H](CO)[C@@H](O[C@H]2O[C@H](CO)[C@@H](O)[C@H](O)[C@H]2O)[C@H](O)[C@H]1O [DDM, n-dodecyl-beta-D-maltoside]	below the limit of detection	below the limit of detection
CCCCCCCCCCCC[N+](C)(C)[O-] [LDAO, lauryldimethylamine oxide]	below the limit of detection	below the limit of detection
